Tests used:
[1] = target: Histone deacetylase; test: Inhibition of HDAC extracted from human HeLa cell nucleus using Boc-Lys(Ac)-AMC as substrate preincubated for 5 mins followed by substrate addition measured after 30 mins by fluorescence based assay; type: subcellular
[2] = test system: MV4-11; test: Antitumor activity against human MV4-11 cells xenografted in BALB/c nude mouse at 45 mg/kg, ip qd treated for 19 days relative to control; type: functional; settings: MV4-11, 456 h, time 19 day, read-out: TGI
[3] = target: T1, DNA (cytosine-5)-methyltransferase 1 (Homo sapiens, UniProt P26358); test: Inhibition of NLuc-fused DNMT1 expressed hypomorphic in human HCT-116 cells assessed as TSG repoter activation at 3 uM incubated for 72 hrs by Nano-Glo Luciferase assay; type: cell-based
Target sequence in this assay (P26358 whole entry, looked up, the tested form may be a part): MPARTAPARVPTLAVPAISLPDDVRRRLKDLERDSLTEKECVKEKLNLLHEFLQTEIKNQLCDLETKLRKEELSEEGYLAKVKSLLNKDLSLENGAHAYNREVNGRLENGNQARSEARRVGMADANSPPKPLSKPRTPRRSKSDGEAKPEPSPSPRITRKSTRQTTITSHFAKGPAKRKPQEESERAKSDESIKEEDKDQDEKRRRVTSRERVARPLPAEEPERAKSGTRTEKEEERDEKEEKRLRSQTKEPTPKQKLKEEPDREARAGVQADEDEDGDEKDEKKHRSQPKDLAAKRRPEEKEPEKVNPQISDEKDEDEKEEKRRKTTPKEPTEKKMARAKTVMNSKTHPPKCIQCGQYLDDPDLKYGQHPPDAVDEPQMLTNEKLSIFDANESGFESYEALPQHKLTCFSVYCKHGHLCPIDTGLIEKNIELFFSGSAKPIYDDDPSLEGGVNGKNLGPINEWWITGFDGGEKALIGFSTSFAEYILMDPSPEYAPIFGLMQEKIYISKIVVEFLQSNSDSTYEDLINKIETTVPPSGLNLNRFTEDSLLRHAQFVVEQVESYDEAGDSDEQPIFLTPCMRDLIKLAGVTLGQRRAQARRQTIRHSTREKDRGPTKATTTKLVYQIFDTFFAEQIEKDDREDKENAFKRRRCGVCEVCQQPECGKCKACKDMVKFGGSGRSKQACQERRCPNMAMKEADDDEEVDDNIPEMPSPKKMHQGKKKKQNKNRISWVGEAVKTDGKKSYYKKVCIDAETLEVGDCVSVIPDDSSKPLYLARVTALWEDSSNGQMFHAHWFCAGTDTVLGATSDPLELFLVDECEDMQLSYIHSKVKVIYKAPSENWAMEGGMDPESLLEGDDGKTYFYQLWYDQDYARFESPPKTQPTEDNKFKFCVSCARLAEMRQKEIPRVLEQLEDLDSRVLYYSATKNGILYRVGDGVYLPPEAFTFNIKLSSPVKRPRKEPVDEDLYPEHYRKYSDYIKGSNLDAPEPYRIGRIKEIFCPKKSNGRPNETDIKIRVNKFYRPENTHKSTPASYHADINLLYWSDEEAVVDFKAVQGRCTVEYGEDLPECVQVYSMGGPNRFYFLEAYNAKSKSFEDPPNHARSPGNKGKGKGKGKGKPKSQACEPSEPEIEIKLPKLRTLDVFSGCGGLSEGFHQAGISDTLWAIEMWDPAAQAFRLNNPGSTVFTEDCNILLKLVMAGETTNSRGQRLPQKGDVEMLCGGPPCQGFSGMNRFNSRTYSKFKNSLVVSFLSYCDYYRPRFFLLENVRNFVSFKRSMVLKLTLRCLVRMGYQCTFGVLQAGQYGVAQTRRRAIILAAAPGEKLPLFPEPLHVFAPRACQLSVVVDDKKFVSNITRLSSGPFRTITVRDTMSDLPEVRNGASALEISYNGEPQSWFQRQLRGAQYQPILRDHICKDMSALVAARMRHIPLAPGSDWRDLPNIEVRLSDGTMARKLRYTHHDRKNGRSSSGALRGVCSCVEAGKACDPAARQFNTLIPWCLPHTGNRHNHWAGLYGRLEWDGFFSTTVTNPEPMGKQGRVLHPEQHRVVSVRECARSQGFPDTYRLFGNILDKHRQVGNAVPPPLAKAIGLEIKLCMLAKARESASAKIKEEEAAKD

[4] = target: T1, DNA (cytosine-5)-methyltransferase 1; test: Induction of thermal stabilization of N-terminal 6xHis-FLAG-tagged […] human DNMT1 (698 to 1616 residues) extracted from Sf9 cells assessed as change in melting temperature at 10 uM by SYPRO Orange dye based PTS assay (reference value: 0.0 degreeC); type: cell-based
Target sequence in this assay (P26358 whole entry, the tested form may be a part): as the sequence (P26358 whole entry, looked up, the tested form may be a part) above

[5] = target: T1, DNA (cytosine-5)-methyltransferase 1; test: Inhibition of DNMT1 (unknown origin) at 100 uM relative to control
Target sequence in this assay (P26358 whole entry, the tested form may be a part): as the sequence (P26358 whole entry, looked up, the tested form may be a part) above

[6] = target: DNA (cytosine-5)-methyltransferase 3A (Homo sapiens) (UniProt Q9Y6K1); test: Inhibition of DNMT3A (unknown origin) at 100 uM relative to control
DNA (cytosine-5)-methyltransferase 3A (Homo sapiens), sequence (Q9Y6K1 whole entry, looked up): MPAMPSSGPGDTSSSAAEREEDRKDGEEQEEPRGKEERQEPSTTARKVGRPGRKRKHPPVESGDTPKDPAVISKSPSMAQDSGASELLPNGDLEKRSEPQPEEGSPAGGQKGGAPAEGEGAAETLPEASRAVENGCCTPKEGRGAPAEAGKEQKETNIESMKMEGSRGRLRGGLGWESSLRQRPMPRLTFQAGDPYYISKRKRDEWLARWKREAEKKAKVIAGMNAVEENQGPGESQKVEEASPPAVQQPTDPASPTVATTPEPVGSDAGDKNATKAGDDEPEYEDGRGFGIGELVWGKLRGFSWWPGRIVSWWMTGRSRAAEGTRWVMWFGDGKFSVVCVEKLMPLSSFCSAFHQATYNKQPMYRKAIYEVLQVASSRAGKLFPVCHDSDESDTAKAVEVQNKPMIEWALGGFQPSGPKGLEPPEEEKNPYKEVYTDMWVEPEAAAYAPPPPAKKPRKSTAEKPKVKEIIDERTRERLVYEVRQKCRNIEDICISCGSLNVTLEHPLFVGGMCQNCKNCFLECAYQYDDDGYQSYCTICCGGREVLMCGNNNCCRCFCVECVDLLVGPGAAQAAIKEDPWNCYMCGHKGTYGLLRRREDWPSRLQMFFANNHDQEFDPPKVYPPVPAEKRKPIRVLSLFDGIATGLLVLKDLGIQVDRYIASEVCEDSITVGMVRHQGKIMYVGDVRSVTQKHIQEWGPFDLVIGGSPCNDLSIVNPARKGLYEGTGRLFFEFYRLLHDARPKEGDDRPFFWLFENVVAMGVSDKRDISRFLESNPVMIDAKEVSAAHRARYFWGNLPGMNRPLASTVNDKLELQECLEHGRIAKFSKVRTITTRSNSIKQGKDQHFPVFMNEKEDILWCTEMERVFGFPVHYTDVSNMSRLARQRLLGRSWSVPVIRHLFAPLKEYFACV

[7] = target: T2, DNA (cytosine-5)-methyltransferase 3B (Homo sapiens, UniProt Q9UBC3); test: Inhibition of DNMT3B (unknown origin) at 100 uM relative to control
[8] = target: Histone deacetylase 1 (Homo sapiens, UniProt Q13547); test: Inhibition of HDAC1 (unknown origin)
Histone deacetylase 1, sequence (Q13547 whole entry): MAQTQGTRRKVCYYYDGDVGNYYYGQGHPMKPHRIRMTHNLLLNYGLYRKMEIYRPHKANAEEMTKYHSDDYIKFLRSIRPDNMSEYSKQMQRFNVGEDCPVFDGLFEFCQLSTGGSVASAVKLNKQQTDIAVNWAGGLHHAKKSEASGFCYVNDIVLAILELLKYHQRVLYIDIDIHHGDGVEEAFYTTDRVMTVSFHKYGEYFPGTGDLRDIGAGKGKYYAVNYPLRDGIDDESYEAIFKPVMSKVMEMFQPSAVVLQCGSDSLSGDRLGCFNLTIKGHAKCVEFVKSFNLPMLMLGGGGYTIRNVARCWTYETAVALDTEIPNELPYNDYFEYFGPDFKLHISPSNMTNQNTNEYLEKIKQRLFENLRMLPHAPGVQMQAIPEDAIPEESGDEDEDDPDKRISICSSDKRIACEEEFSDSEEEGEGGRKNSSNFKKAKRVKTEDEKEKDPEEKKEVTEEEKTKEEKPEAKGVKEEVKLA

[9] = target: T3, Protein deacetylase HDAC6 (Homo sapiens, UniProt Q9UBN7); test: Inhibition of HDAC6 (unknown origin)
T3 sequence (Q9UBN7 whole entry): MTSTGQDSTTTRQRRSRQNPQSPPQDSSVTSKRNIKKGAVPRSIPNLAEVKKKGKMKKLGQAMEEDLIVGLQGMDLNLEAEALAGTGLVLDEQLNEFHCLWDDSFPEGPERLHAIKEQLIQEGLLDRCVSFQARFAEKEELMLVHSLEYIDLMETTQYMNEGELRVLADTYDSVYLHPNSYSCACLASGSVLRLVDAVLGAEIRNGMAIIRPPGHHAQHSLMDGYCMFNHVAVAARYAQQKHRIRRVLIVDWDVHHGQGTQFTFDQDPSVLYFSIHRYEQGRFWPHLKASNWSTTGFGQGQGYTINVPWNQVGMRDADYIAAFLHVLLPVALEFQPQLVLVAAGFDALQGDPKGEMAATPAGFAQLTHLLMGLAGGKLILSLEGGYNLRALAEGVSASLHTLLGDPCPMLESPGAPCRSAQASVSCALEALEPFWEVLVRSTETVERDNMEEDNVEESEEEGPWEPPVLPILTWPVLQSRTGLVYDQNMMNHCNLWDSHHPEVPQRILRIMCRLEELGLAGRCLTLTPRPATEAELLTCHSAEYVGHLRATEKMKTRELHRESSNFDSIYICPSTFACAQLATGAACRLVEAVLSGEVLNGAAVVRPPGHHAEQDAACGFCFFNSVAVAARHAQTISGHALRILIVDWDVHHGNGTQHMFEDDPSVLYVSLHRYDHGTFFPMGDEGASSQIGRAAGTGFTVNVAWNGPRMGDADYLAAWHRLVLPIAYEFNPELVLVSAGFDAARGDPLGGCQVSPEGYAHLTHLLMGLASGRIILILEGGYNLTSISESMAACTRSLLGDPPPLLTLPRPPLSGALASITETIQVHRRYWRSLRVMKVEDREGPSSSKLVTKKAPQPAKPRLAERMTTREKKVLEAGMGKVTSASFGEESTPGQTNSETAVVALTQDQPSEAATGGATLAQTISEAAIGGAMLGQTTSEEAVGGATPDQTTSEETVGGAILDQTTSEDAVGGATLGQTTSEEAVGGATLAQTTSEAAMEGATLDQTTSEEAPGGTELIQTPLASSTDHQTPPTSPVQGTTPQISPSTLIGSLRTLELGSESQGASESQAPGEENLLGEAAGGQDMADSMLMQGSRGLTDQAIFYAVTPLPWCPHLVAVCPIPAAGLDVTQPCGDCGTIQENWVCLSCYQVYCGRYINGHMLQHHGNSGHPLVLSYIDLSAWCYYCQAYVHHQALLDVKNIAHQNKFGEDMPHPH

[10] = test system: MV4-11; test: Antiproliferative activity against human MV4-11 cells incubated for 96 hrs by CCK8 assay; type: functional, cell-based; settings: MV4-11, 96 h
[11] = target: T2, DNA (cytosine-5)-methyltransferase 3B; test: Inhibition of DNMT3B (unknown origin)

SMILES: CCc1c(C#N)c(SC(C(N)=O)c2ccccc2)nc(N2CCC(NC(=O)CCCCCCCC(=O)NO)CC2)c1C#N (stereo unspecified)
- IC50 [1]: 1.16 µM

SMILES: CCc1c(C#N)c(SC(C(N)=O)c2ccccc2)nc(N2CCN(c3ncc(C(=O)NO)cn3)CC2)c1C#N (stereo unspecified)
- IC50 [1]: 0.06 µM

SMILES: CCc1c(C#N)c(SC(C(N)=O)c2ccccc2)nc(N2CCC(CNCc3ccc(/C=C/C(=O)NO)cc3)CC2)c1C#N (stereo unspecified)
- inhibition in vivo at 45 mg/kg [2]: 95%
- EC50 [3]: 1090 nM
- ΔTm [4]: 11 °C

SMILES: CCc1c(C#N)c(SC(C(N)=O)c2ccccc2)nc(N2CCC(Nc3ncc(C(=O)NO)cn3)CC2)c1C#N (stereo unspecified)
- IC50 [1]: 0.19 µM

SMILES: CCc1c(C#N)c(SC(C(N)=O)c2ccccc2)nc(N2CCC(NC(=O)CCCCCC(=O)NO)CC2)c1C#N (stereo unspecified)
- IC50 [1]: 0.21 µM

SMILES: CCc1c(C#N)c(SC(C(N)=O)c2ccccc2)nc(N2CCC(NC(=O)CCCC(=O)Nc3ccc(C(=O)NO)cc3)CC2)c1C#N (stereo unspecified)
- IC50 [1]: 0.57 µM

SMILES: CCc1c(C#N)c(SC(C(N)=O)c2ccccc2)nc(N2CCC(NC(=O)CCCC(=O)NO)CC2)c1C#N (stereo unspecified)
- IC50 [1]: 1.07 µM

SMILES: CCc1c(C#N)c(S[C@H](C(N)=O)c2ccccc2)nc(N2CCC(CNCc3ccc(/C=C/C(=O)NO)cc3)CC2)c1C#N
- EC50 [3]: 1180 nM
- ΔTm [4]: 9 °C

SMILES: CCc1c(C#N)c(SC(C(N)=O)c2ccccc2)nc(N2CCC(NC(=O)Cc3ccc(C(=O)Nc4ccccc4N)cc3)CC2)c1C#N (stereo unspecified)
- IC50 [1]: > 20 µM

SMILES: CCc1c(C#N)c(SC(C(N)=O)c2ccccc2)nc(N2CCC(NCc3ccc(C(=O)NCc4ccc(/C=C/C(=O)NO)cc4)cc3)CC2)c1C#N (stereo unspecified)
- IC50 [1]: 0.08 µM

SMILES: CCc1c(C#N)c(SC(C(N)=O)c2ccccc2)nc(N(C)C2CCN(c3ncc(C(=O)NO)cn3)CC2)c1C#N (stereo unspecified)
- inhibition [5]: 69.9%
- inhibition [6]: 23.4%
- inhibition [7]: 48.5%
- IC50 [8]: 56.8 nM
- IC50 [9]: 17.4 nM
- IC50 [1]: 0.23 µM

SMILES: CCc1c(C#N)c(SC(C(N)=O)c2ccccc2)nc(N(C)CCNCc2ccc(/C=C/C(=O)NO)cc2)c1C#N (stereo unspecified)
- IC50 [1]: 0.16 µM

SMILES: CCc1c(C#N)c(SC(C(N)=O)c2ccccc2)nc(N2CCC(NC(=O)CCCCC(=O)NO)CC2)c1C#N (stereo unspecified)
- IC50 [1]: > 5 µM

SMILES: CCc1c(C#N)c(SC(C(N)=O)c2ccccc2)nc(N2CCC(NC(=O)CCC(=O)Nc3ccc(C(=O)NO)cc3)CC2)c1C#N (stereo unspecified)
- IC50 [1]: 1.3 µM

SMILES: CCc1c(C#N)c(SC(C(N)=O)c2ccccc2)nc(N2CCC(NCc3ccc(C(=O)NO)cc3)CC2)c1C#N (stereo unspecified)
- IC50 [1]: > 5 µM

SMILES: CCc1c(C#N)c(SC(C(N)=O)c2ccccc2)nc(N2CCC(NC(=O)CCCCC(=O)Nc3ccc(C(=O)NO)cc3)CC2)c1C#N (stereo unspecified)
- IC50 [1]: 0.28 µM

SMILES: CCc1c(C#N)c(SC(C(N)=O)c2ccccc2)nc(N2CCC(NC(=O)CCCC(=O)NCc3ccc(C(=O)NO)cc3)CC2)c1C#N (stereo unspecified)
- IC50 [1]: 0.33 µM

SMILES: CCc1c(C#N)c(SC(C(N)=O)c2ccccc2)nc(N2CCC(NC(=O)c3ccc(C(=O)Nc4ccccc4N)cc3)CC2)c1C#N (stereo unspecified)
- IC50 [1]: > 20 µM

SMILES: CCc1c(C#N)c(SC(C(N)=O)c2ccccc2)nc(N2CCC(NCc3ccc(/C=C/C(=O)NO)cc3)CC2)c1C#N (stereo unspecified)
- IC50 [1]: 0.13 µM
- IC50 [10]: 660 nM
- inhibition in vivo at 45 mg/kg [2]: 80%

SMILES: CCc1c(C#N)c(SC(C(N)=O)c2ccccc2)nc(N2CCN(Cc3ccc(/C=C/C(=O)NO)cc3)CC2)c1C#N (stereo unspecified)
- IC50 [1]: 0.14 µM

SMILES: CCc1c(C#N)c(SC(C(N)=O)c2ccccc2)nc(N2CCC(NC(=O)CCC(=O)NO)CC2)c1C#N (stereo unspecified)
- IC50 [1]: > 5 µM

SMILES: CCc1c(C#N)c(SC(C(N)=O)c2ccccc2)nc(N2CCC(NC(=O)CCCC(=O)Nc3ccccc3N)CC2)c1C#N (stereo unspecified)
- IC50 [1]: > 20 µM

SMILES: CCc1c(C#N)c(SC(C(N)=O)c2ccccc2)nc(N2CCC(NC(=O)c3ccc(C(=O)NO)cc3)CC2)c1C#N (stereo unspecified)
- IC50 [1]: 0.87 µM

SMILES: CCc1c(C#N)c(SC(C(N)=O)c2ccccc2)nc(N2CCC(NCc3ccc(C(=O)Nc4ccccc4N)cc3)CC2)c1C#N (stereo unspecified)
- IC50 [1]: > 20 µM

SMILES: O=C(NO)C1CCN(CC(O)COC(Cn2c3ccccc3c3ccccc32)Cn2c3ccccc3c3ccccc32)CC1 (stereo unspecified)
- IC50 [11]: 1320 nM

SMILES: CCc1c(C#N)c(SC(C(N)=O)c2ccccc2)nc(N2CCC(NCc3ccc(C(=O)NCc4ccc(C(=O)NO)cc4)cc3)CC2)c1C#N (stereo unspecified)
- IC50 [1]: 0.25 µM

SMILES: CCc1c(C#N)c(CN(C)C2CCN(c3ncc(C(=O)NO)cn3)CC2)nc(SC(C(N)=O)c2ccccc2)c1C#N (stereo unspecified)
- IC50 [1]: 0.1 µM

SMILES: CCc1c(C#N)c(SC(C(N)=O)c2ccccc2)nc(N2CCC(CNc3ncc(C(=O)NO)cn3)CC2)c1C#N (stereo unspecified)
- IC50 [1]: 0.14 µM

SMILES: CCc1c(C#N)c(SC(C(N)=O)c2ccccc2)nc(N2CCC(NC(=O)CCCCCCC(=O)NO)CC2)c1C#N (stereo unspecified)
- IC50 [1]: 0.3 µM

SMILES: CCc1c(C#N)c(SC(C(N)=O)c2ccccc2)nc(N2CCC(NC(=O)CCC(=O)NCc3ccc(C(=O)NO)cc3)CC2)c1C#N (stereo unspecified)
- IC50 [1]: 0.23 µM

SMILES: CCc1c(C#N)c(SC(C(N)=O)c2ccccc2)nc(N2CCC(NC(=O)CCC(=O)Nc3ccc(/C=C/C(=O)NO)cc3)CC2)c1C#N (stereo unspecified)
- IC50 [1]: 0.23 µM

— ChEMBL document CHEMBL5608247, “Development of a First-in-Class DNMT1/HDAC Inhibitor with Improved Therapeutic Potential and Potentiated Antitumor Immunity” (J Med Chem, 2024)
